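Growth conditions: 96-well plates. Treatment: test compound, 48 hours, 5 concentrations. Analysis: linear interpolation between bracketing concentrations; unreached endpoints set to highest concentration. TGI denotes the concentration required for complete inhibition of growth.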
How the values were obtained:
Test in all cases: NCI anticancer screen, dose series, 48 h
[1] = tested on: NCI-H23 lung
[2] = tested on: A498 renal
[3] = tested on: MCF7 breast
[4] = tested on: UACC-62 melanoma
[5] = tested on: BT-549 breast
[6] = tested on: EKVX NSCLC
[7] = tested on: NCI/ADR-RES ovarian
[8] = tested on: NCI-H460 lung
[9] = tested on: COLO 205 colon
[10] = tested on: HOP-92 NSCLC
[11] = tested on: T-47D breast
[12] = tested on: SK-OV-3 ovarian
[13] = tested on: M14 melanoma
[14] = tested on: HT29 colon
[15] = tested on: ACHN renal
[16] = tested on: K-562 leukemia
[17] = tested on: SW-620 colon
[18] = tested on: CAKI-1 renal
[19] = tested on: MDA-MB-231 breast
[20] = tested on: CCRF-CEM leukemia
[21] = tested on: SK-MEL-28 melanoma
[22] = tested on: SK-MEL-2 melanoma
[23] = tested on: OVCAR-3 ovarian
[24] = tested on: SF-539 CNS
[25] = tested on: HCT-15 colon
[26] = tested on: OVCAR-8 ovarian
[27] = tested on: SN12C renal
[28] = tested on: HCT-116 colon
[29] = tested on: SNB-19 CNS
[30] = tested on: A549 NSCLC
[31] = tested on: LOX IMVI melanoma
[32] = tested on: IGROV1 ovarian
[33] = tested on: PC-3 prostate
[34] = tested on: SF-295 CNS
[35] = tested on: UO-31 renal
[36] = tested on: 786-0 renal
[37] = tested on: MALME-3M melanoma
[38] = tested on: NCI-H226 lung
[39] = tested on: OVCAR-5 ovarian
[40] = tested on: SK-MEL-5 melanoma
[41] = tested on: U251 CNS
[42] = tested on: DU-145 prostate
[43] = tested on: UACC-257 melanoma
[44] = tested on: TK-10 renal
[45] = tested on: HCC-2998 colon
[46] = tested on: RXF 393 renal
[47] = tested on: MOLT-4 leukemia
[48] = tested on: MDA-N
[49] = tested on: HL-60(TB) leukemia
[50] = tested on: RPMI-8226 leukemia
[51] = tested on: OVCAR-4 ovarian
[52] = tested on: KM12 colon
[53] = tested on: NCI-H522 lung
[54] = tested on: MDA-MB-435
[55] = tested on: HS 578T breast
[56] = tested on: HOP-62 NSCLC
[57] = tested on: SNB-75 CNS
[58] = tested on: SF-268 CNS

CCOC(=O)c1c(C)cc(=O)n2c1[nH]c1ccccc12
TGI [1]: > 100 µM
TGI [2]: > 100 µM
TGI [3]: > 100 µM
TGI [4]: > 100 µM
TGI [5]: > 100 µM
TGI [6]: > 100 µM
TGI [7]: > 100 µM
TGI [8]: > 100 µM
TGI [9]: > 100 µM
TGI [10]: > 100 µM
TGI [11]: > 100 µM
TGI [12]: > 100 µM
TGI [13]: > 100 µM
TGI [14]: > 100 µM
TGI [15]: > 100 µM
TGI [16]: > 100 µM
TGI [17]: > 100 µM
TGI [18]: 50.9 µM
TGI [19]: > 100 µM
TGI [20]: > 100 µM
TGI [21]: > 100 µM
TGI [22]: > 100 µM
TGI [23]: > 100 µM
TGI [24]: > 100 µM
TGI [25]: > 100 µM
TGI [26]: > 100 µM
TGI [27]: > 100 µM
TGI [28]: > 100 µM
TGI [29]: > 100 µM
TGI [30]: > 100 µM
TGI [31]: > 100 µM
TGI [32]: > 100 µM
TGI [33]: > 100 µM
TGI [34]: > 100 µM
TGI [35]: > 100 µM
TGI [36]: > 100 µM
TGI [37]: > 100 µM
TGI [38]: > 100 µM
TGI [39]: > 100 µM
TGI [40]: > 100 µM
TGI [41]: > 100 µM
TGI [42]: > 100 µM
TGI [43]: > 100 µM
TGI [44]: > 100 µM
TGI [45]: > 100 µM
TGI [46]: > 100 µM
TGI [47]: > 100 µM
TGI [48]: > 100 µM
TGI [49]: > 100 µM

CCN(CC)CCN1C(=O)c2c(c(-c3ccccc3)c3ccccc3c2-c2ccccc2)C1=O
TGI [50]: > 100 µM
TGI [2]: > 100 µM
TGI [3]: > 100 µM
TGI [4]: > 100 µM
TGI [5]: > 100 µM
TGI [6]: > 100 µM
TGI [7]: > 100 µM
TGI [8]: > 100 µM
TGI [9]: > 100 µM
TGI [10]: 86.9 µM
TGI [12]: > 100 µM
TGI [13]: > 100 µM
TGI [14]: > 100 µM
TGI [51]: > 100 µM
TGI [15]: > 100 µM
TGI [16]: > 100 µM
TGI [52]: > 100 µM
TGI [17]: > 100 µM
TGI [18]: > 100 µM
TGI [53]: > 100 µM
TGI [19]: > 100 µM
TGI [20]: > 100 µM
TGI [22]: > 100 µM
TGI [24]: > 100 µM
TGI [25]: > 100 µM
TGI [26]: > 100 µM
TGI [54]: > 100 µM
TGI [55]: > 100 µM
TGI [27]: > 100 µM
TGI [28]: > 100 µM
TGI [29]: > 100 µM
TGI [30]: > 100 µM
TGI [31]: > 100 µM
TGI [56]: > 100 µM
TGI [32]: > 100 µM
TGI [33]: > 100 µM
TGI [34]: > 100 µM
TGI [36]: > 100 µM
TGI [37]: > 100 µM
TGI [38]: > 100 µM
TGI [39]: > 100 µM
TGI [40]: > 100 µM
TGI [41]: > 100 µM
TGI [43]: > 100 µM
TGI [57]: > 100 µM
TGI [44]: > 100 µM
TGI [45]: > 100 µM
TGI [58]: > 100 µM
TGI [46]: > 100 µM
TGI [47]: > 100 µM
TGI [48]: > 100 µM
TGI [49]: > 100 µM
